Test results from ChEMBL document CHEMBL2176956, “Application of structure-based drug design and parallel chemistry to identify selective, brain penetrant, in vivo active phosphodiesterase 9A inhibitors” (J Med Chem, 2012).

Assay: Clearance in human liver microsomes
Format: ADME, Microsome
Conditions: read-out: CLH

`O=c1[nH]c(Cc2ccccc2)nc2c1cnn2C1CCCC1` gave a CLint scaled of 200 mL/min/kg.
